Key:
Homo sapiens = test: Toxicity in critically ill patient with ventilator-associated pneumoniae assessed as adverse effects at […] administered as 3 hr infusion every 8 hrs by HPLC; type: organism-based; settings: in vivo, iv
Serum = test: Serum creatinine level in critically ill patient with ventilator-associated pneumoniae at […] administered as 3 hr infusion every 8 hrs by HPLC; type: ADME, organism-based; settings: human, in vivo, iv

serum creatinine (Serum): 0.8 mg/dL
SMILES: CO/N=C(\C(=O)N[C@@H]1C(=O)N2C(C(=O)[O-])=C(C[N+]3(C)CCCC3)CS[C@H]12)c1csc(N)n1 [CEFEPIME]
Activity (Homo sapiens): Non-toxic

From ChEMBL document CHEMBL1649153, “Population pharmacokinetics of high-dose, prolonged-infusion cefepime in adult critically ill patients with ventilator-associated pneumonia” (Antimicrob Agents Chemother, 2009)
